# Experiments:
# [1] = system: HOP-92; experiment: NCI five-dose assay; assay type: cell-based; details: Non-Small-Cell Lung Cancer HOP-92
# [2] = system: UACC-257; experiment: NCI five-dose assay; assay type: cell-based; details: Melanoma UACC-257
# [3] = system: SK-OV-3; experiment: NCI five-dose assay; assay type: cell-based; details: Ovarian Cancer SK-OV-3
# [4] = system: LOX IMVI; experiment: NCI five-dose assay; assay type: cell-based; details: Homo sapiens, Melanoma LOX IMVI
# [5] = system: P-glycoprotein (Pgp) in MDR-SR Leukemia cell line; experiment: Multidrug resistance assay (Pgp ELISA); assay type: cell-based, human; details: relative to control
# [6] = system: K-562; experiment: NCI five-dose assay; assay type: cell-based; details: Leukemia K-562
# [7] = system: OVCAR-3; experiment: NCI five-dose assay
# [8] = system: UO-31; experiment: NCI five-dose assay; assay type: cell-based; details: Renal Cancer UO-31
# [9] = system: NCI/ADR-RES; experiment: NCI five-dose assay; assay type: cell-based; details: Homo sapiens, Ovarian Cancer NCI/ADR-RES
# [10] = system: A498; experiment: NCI five-dose assay; assay type: cell-based; details: Renal Cancer A498
# [11] = system: NCI-H226; experiment: NCI five-dose assay; assay type: cell-based; details: Homo sapiens, Non-Small-Cell Lung Cancer NCI-H226
# [12] = system: UACC-62; experiment: NCI five-dose assay; assay type: cell-based; details: Melanoma UACC-62
# [13] = system: MALME-3M; experiment: NCI five-dose assay; assay type: cell-based; details: Homo sapiens, Melanoma MALME-3M
# [14] = system: SF-295; experiment: NCI five-dose assay; assay type: cell-based; details: CNS Cancer SF-295
# [15] = system: BT-549; experiment: NCI five-dose assay; assay type: cell-based, human; details: Breast Cancer BT-549
# [16] = system: HT29; experiment: NCI five-dose assay; assay type: cell-based; details: Colon Cancer HT29
# [17] = system: T-47D; experiment: NCI five-dose assay; assay type: cell-based; details: Breast Cancer T-47D
# [18] = system: MDA-MB-468; experiment: NCI five-dose assay
# [19] = system: TK-10; experiment: NCI five-dose assay; assay type: cell-based, human; details: Renal Cancer TK-10
# [20] = system: SK-MEL-28; experiment: NCI five-dose assay; assay type: cell-based; details: Melanoma SK-MEL-28
# [21] = system: MOLT-4; experiment: NCI five-dose assay; assay type: cell-based; details: Leukemia MOLT-4
# [22] = system: HCT-116; experiment: NCI five-dose assay; assay type: cell-based; details: Colon Cancer HCT-116
# [23] = system: OVCAR-4; experiment: NCI five-dose assay; assay type: cell-based, human; details: Ovarian Cancer OVCAR-4
# [24] = system: OVCAR-5; experiment: NCI five-dose assay; assay type: cell-based; details: Ovarian Cancer OVCAR-5
# [25] = system: NCI-H23; experiment: NCI five-dose assay; assay type: cell-based; details: Non-Small-Cell Lung Cancer NCI-H23
# [26] = system: SK-MEL-2; experiment: NCI five-dose assay; assay type: cell-based; details: Melanoma SK-MEL-2
# [27] = system: EKVX; experiment: NCI five-dose assay; assay type: cell-based; details: Non-Small-Cell Lung Cancer EKVX
# [28] = system: NCI-H522; experiment: NCI five-dose assay; assay type: cell-based; details: Non-Small-Cell Lung Cancer NCI-H522
# [29] = system: KM12; experiment: NCI five-dose assay; assay type: cell-based; details: Colon Cancer KM12
# [30] = system: SW-620; experiment: NCI five-dose assay; assay type: cell-based, human; details: Colon Cancer SW-620
# [31] = Homo sapiens, read-out: GI50 Concentration/Cell Line
# [32] = Homo sapiens, read-out: LC50 (the source's name)
# [33] = read-out: GI50 Concentration/Cell Line
structure (smiles),measurement,setting,value
COC(=O)C=C1SC(=NNC(=O)c2cc3ccc2CCc2ccc(cc2)CC3)N(c2ccccc2)C1=O [Compound 3a],GI50,[1]; [31],1910 nM
same,CC50,[1]; [32],> 100 µM
same,TGI Concentration/Cell Line,[1],9.14 µM
same,LC50,[2]; Homo sapiens,> 100 µM
same,GI50,[2]; [31],5.14 µM
same,TGI Concentration/Cell Line,[2],>100 µM
same,"LC50 (NCI lethal concentration, 50% cell kill)",[3]; Homo sapiens,> 100 µM
same,GI50,[3]; [31],3.55 µM
same,TGI Concentration/Cell Line,[3],7.53 µM
same,LC50 (concentration killing 50% of cells),[4],6.75 µM
same,GI50,[4]; [33],1690 nM
same,Pgp-Mediated MDR Fold Change,[5],1.15 fold
same,GI50,"[6]; Homo sapiens, K562, read-out: GI50 Concentration/Cell Line",3.15 µM
same,CC50,"[6]; Homo sapiens, K562, read-out: LC50 (the source's name)",> 100 µM
same,TGI Concentration/Cell Line,[6],>100 µM
same,GI50,"[7]; Homo sapiens, OVCAR-3, read-out: GI50 Concentration/Cell Line",1800 nM
same,CC50,"[7]; Homo sapiens, OVCAR-3, read-out: LC50",7.23 µM
same,TGI Concentration/Cell Line,[7]; Ovarian Cancer OVCAR-3,3.61 µM
same,LC50,[8]; Homo sapiens,6.2 µM
same,GI50,[8]; [31],1530 nM
same,TGI Concentration/Cell Line,[8],3.08 µM
same,LC50,[9],> 100 µM
same,GI50,[9]; [33],2920 nM
same,CC50,[10]; [32],> 100 µM
same,TGI Concentration/Cell Line,[10],8.36 µM
same,LC50 (concentration killing 50% of tumour cells),[11],> 100 µM
same,GI50,[11]; [33],4.38 µM
same,GI50,[12]; [31],1960 nM
same,CC50,[12]; [32],9.02 µM
same,TGI Concentration/Cell Line,[12],4.21 µM
same,GI50,[13]; [33],3.27 µM
same,CC50,[13]; read-out: LC50 (the source's name),> 100 µM
same,TGI Concentration/Cell Line,[14],4.19 µM
same,LC50,[14]; Homo sapiens,8.5 µM
same,GI50,[14]; [31],2070 nM
same,TGI Concentration/Cell Line,[15],5.35 µM
same,GI50,[15]; [31],2220 nM
same,TGI Concentration/Cell Line,[16],4.07 µM
same,LC50,"[16]; Homo sapiens, HT-29",8.56 µM
same,GI50,"[16]; Homo sapiens, HT-29, read-out: GI50 Concentration/Cell Line",1930 nM
same,TGI Concentration/Cell Line,[17],3.65 µM
same,GI50,"[17]; Homo sapiens, T47D, read-out: GI50 Concentration/Cell Line",1540 nM
same,CC50,"[17]; Homo sapiens, T47D, read-out: LC50 (the source's name)",8.68 µM
same,TGI Concentration/Cell Line,[18]; Breast Cancer MDA-MB-468,3.74 µM
same,GI50,"[18]; Homo sapiens, MDA-MB-468, read-out: GI50 Concentration/Cell Line",1840 nM
same,CC50,"[18]; Homo sapiens, MDA-MB-468, read-out: LC50",7.61 µM
same,GI50,[19]; [31],2030 nM
same,TGI Concentration/Cell Line,[19],5.60 µM
same,LC50 (concentration causing 50% net cell kill),[20]; Homo sapiens,> 100 µM
same,GI50,[20]; [31],2970 nM
same,TGI Concentration/Cell Line,[20],9.87 µM
same,LC50 (concentration killing 50% of cells),[21]; Homo sapiens,> 100 µM
same,GI50,[21]; [31],3.12 µM
same,TGI Concentration/Cell Line,[21],>100 µM
same,TGI Concentration/Cell Line,[22],3.66 µM
same,LC50,[22]; Homo sapiens,7.51 µM
same,GI50,[22]; [31],1790 nM
same,GI50,[23]; [31],3.17 µM
same,TGI Concentration/Cell Line,[23],9.88 µM
same,LC50 (50% lethal concentration),[24]; Homo sapiens,7.68 µM
same,GI50,[24]; [31],1920 nM
same,TGI Concentration/Cell Line,[24],3.84 µM
same,"LC50 (NCI lethal concentration, 50% cell kill)",[25]; Homo sapiens,8.85 µM
same,GI50,[25]; [31],1950 nM
same,TGI Concentration/Cell Line,[25],4.15 µM
same,LC50 (concentration causing 50% net cell kill),[26]; Homo sapiens,> 100 µM
same,GI50,[26]; [31],2650 nM
same,TGI Concentration/Cell Line,[26],7.76 µM
same,GI50,[27]; [31],1910 nM
same,CC50,[27]; [32],9.38 µM
same,TGI Concentration/Cell Line,[27],4.23 µM
same,LC50,[28]; Homo sapiens,> 100 µM
same,GI50,[28]; [31],4.89 µM
same,TGI Concentration/Cell Line,[28],>100 µM
same,TGI Concentration/Cell Line,[29],4.15 µM
same,GI50,[29]; [31],2030 nM
same,CC50,[29]; [32],8.51 µM
same,TGI Concentration/Cell Line,[30],3.66 µM
same,LC50 (concentration killing 50% of cells),[30]; Homo sapiens,7.23 µM
same,GI50,[30]; [31],1850 nM
